Structures are written as SMILES.

Assay [1] addresses T1, Bifunctional 3'-5' exonuclease/ATP-dependent helicase WRN [480-1251] (UniProt Q14191).
T1 construct: 480-1251
The assay can be described thus: Biochemical Activity Assays.

Assay [2] deals with Bifunctional 3'-5' exonuclease/ATP-dependent helicase WRN (Homo sapiens, UniProt Q14191). The assay can be described thus: ADP-Glo Kinase Assay. How it is done: ATPase activity was measured using the ADP-Glo Kinase Assay following the manufacturers recommended protocol.
Bifunctional 3'-5' exonuclease/ATP-dependent helicase WRN, sequence (Q14191 whole entry): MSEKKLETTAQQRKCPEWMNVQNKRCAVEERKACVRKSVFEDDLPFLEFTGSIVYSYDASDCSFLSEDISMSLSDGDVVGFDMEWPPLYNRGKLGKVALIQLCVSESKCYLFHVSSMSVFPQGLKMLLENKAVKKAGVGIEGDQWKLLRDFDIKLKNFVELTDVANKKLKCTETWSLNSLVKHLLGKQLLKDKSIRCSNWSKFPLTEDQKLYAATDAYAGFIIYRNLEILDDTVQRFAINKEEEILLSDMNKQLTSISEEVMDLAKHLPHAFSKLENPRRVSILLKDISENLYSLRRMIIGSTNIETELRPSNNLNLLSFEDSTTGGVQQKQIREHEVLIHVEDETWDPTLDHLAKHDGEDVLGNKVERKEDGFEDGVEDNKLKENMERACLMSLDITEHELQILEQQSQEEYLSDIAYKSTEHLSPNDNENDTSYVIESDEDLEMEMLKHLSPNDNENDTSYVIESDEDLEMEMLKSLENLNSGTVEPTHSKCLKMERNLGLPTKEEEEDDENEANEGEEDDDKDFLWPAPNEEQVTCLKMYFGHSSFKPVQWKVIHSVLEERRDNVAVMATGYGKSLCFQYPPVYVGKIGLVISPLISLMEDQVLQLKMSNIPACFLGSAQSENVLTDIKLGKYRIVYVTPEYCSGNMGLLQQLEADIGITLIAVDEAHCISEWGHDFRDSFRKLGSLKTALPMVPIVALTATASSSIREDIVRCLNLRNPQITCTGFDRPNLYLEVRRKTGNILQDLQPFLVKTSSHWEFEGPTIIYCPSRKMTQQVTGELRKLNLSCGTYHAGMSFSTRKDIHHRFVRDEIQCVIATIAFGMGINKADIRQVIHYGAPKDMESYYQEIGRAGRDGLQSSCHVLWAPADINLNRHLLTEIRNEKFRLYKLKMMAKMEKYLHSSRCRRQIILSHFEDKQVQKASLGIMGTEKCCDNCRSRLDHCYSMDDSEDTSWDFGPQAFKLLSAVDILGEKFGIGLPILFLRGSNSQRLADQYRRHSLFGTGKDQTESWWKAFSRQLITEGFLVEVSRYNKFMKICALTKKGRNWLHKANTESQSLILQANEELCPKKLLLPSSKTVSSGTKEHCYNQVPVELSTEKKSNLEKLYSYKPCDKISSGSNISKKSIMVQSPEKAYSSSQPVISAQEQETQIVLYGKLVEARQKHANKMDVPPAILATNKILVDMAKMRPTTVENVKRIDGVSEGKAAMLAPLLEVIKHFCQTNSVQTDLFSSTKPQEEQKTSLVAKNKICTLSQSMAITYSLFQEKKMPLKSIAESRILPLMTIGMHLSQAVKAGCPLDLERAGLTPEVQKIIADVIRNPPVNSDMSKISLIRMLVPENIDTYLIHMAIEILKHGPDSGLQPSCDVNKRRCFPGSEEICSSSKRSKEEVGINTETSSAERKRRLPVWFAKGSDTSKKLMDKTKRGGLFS

T1 sequence (Q14191 480-1251): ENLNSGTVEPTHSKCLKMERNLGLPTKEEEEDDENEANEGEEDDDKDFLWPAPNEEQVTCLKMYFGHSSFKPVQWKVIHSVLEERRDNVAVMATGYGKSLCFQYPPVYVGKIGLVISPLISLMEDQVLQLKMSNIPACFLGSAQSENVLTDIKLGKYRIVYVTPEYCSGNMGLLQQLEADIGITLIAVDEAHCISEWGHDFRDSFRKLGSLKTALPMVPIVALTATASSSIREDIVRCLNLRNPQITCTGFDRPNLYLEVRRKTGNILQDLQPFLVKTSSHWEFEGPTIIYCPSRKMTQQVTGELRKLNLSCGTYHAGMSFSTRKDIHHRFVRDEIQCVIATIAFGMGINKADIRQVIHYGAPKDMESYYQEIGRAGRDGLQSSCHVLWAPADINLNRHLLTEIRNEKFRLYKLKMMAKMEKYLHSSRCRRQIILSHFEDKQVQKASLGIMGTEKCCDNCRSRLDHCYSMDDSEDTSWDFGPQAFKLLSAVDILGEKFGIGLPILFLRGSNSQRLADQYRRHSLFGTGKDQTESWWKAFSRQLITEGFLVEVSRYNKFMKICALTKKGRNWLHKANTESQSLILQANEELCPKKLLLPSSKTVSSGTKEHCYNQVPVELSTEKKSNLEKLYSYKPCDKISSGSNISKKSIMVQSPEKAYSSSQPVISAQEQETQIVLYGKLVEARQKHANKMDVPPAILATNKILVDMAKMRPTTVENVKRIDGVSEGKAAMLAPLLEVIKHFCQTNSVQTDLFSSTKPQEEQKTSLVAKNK

With `CCc1c(N2CCN(C(=O)c3ncnc(C)c3O)CC2)c(=O)n2nc(-c3ccc(NS(N)(=O)=O)cc3)nc2n1CC(=O)Nc1ccc(C(F)(F)F)cc1Cl` [WO2025049746, Example 329], the IC50 (in general, the concentration that inhibits the measured activity by half) in assay [1] stood at 25 nM; in assay [2], 21 nM.

Regarding `CCc1c(N2CCN(C(=O)c3cccc[n+]3[O-])CC2)c(=O)n2nc(C3=CCOCC3)nc2n1CC(=O)Nc1ccc(C(F)(F)F)cc1Cl` [WO2025049746, Example 35], the IC50 in assay [1] is 68.4 nM; in assay [2] it was 130 nM.

With `CCc1c(N2CCN(C(=O)c3ncnc(C)c3O)CC2)c(=O)n2nc(-c3ccc4c(c3)CC(C)(C)N4C)nc2n1CC(=O)Nc1ccc(C(F)(F)F)cc1Cl` [WO2025049746, Example 316], the IC50 in assay [1] is 68 nM; in assay [2], 57 nM.

For the molecule `CCc1c(N2CCN(C(=O)c3ncnc(C)c3O)CC2)c(=O)n2nc(-c3cc4c(cc3F)C3(CN(C)C3)OC4)nc2n1CC(=O)Nc1ccc(C(F)(F)F)cc1Cl` [WO2025049746, Example 273], the IC50 is 48 nM in assay [1] and 43 nM in assay [2].

Turning to `CCc1c(N2CCN(C(=O)c3ncnc4cc[nH]c34)CC2)c(=O)n2nc(-c3ccc4c(c3)COC4)nc2n1CC(=O)Nc1ccc(C(F)(F)F)cc1Cl` [WO2025049746, Example 444], the IC50 in assay [1] came out at 40 nM; in assay [2], 44 nM.

In the case of `CCc1c(N2CCN(C(=O)c3ncnc(C)c3O)CC2)c(=O)n2nc(-c3ccc4nc(C)ccc4c3)nc2n1CC(=O)Nc1ccc(C(F)(F)F)cc1Cl` [WO2025049746, Example 323], the results for the IC50 in assay [1] and in assay [2] were 28 nM and 26 nM, respectively.

Take `CCc1c(N2CCN(C(=O)c3ncnc(C)c3O)CC2)c(=O)n2nc(-c3ccc4c(c3)CO[C@H]4C)nc2n1CC(=O)Nc1ccc(C(F)(F)F)cc1Cl` [WO2025049746, Example 192]: the IC50 in assay [1] was 31 nM; in assay [2], 40 nM.

For the molecule `CCc1c(N2CCN(C(=O)c3ncnc(C)c3O)CC2)c(=O)n2nc(-c3ccc4c(cnn4C)c3)nc2n1CC(=O)Nc1ccc(C(F)(F)F)cc1Cl` [WO2025049746, Example 321], the IC50 is 23 nM in assay [1] and 20 nM in assay [2].

In the case of `CCc1c(N2CCN(C(=O)c3ncnc(C)c3O)CC2)c(=O)n2nc(-c3ccc4c(c3)CC[C@H]4OC)nc2n1CC(=O)Nc1ccc(C(F)(F)F)cc1Cl` [WO2025049746, Example 208], the IC50 stood at 34 nM in assay [1] and 39 nM in assay [2].

In the case of `CCc1c(N2CCN(C(=O)c3ncnc(C)c3O)CC2)c(=O)n2nc(-c3ccc4c(c3)COC43CCOCC3)nc2n1CC(=O)Nc1ccc(C(F)(F)F)cc1Cl` [WO2025049746, Example 289], the IC50 amounted to 56 nM in assay [1] and 53 nM in assay [2].

As for `CCc1c(N2CCN(C(=O)c3nc4n(c(=O)c3O)CCOC4)CC2)c(=O)n2nc(N3C[C@H]4COC[C@H]4C3)nc2n1CC(=O)Nc1ccc(C(F)(F)F)cc1Cl` [WO2025049746, Example 93], the IC50 is 320 nM in assay [1] and 381 nM in assay [2].

Take `CCc1c(N2CCN(C(=O)c3ncnc(C)c3O)CC2)c(=O)n2nc(-c3ccc4c(c3)CCOC4(C)C)nc2n1CC(=O)Nc1ccc(C(F)(F)F)cc1Cl` [WO2025049746, Example 195]: the IC50 in assay [1] turned out to be 39 nM; in assay [2], 45 nM.

Turning to `CCc1c(N2CCN(C(=O)c3cccc4c3nnn4C)CC2)c(=O)n2nc(C3=CCOCC3)nc2n1CC(=O)Nc1ccc(C(F)(F)F)cc1Cl` [WO2025049746, Example 49], the IC50 in assay [1] worked out at 46.7 nM; in assay [2], 130 nM.

With `CCc1c(N2CCN(C(=O)C(F)(F)C3(O)CCC3)CC2)c(=O)n2nc(C3=CCOCC3)nc2n1CC(=O)Nc1ccc(C(F)(F)F)cc1Cl` [WO2025049746, Example 57], the IC50 in assay [1] amounted to 486 nM; in assay [2], 827 nM.

Consider `CCc1c(N2CCN(C(=O)c3ncnc(C)c3O)CC2)c(=O)n2nc(-c3cnc4ccn(C)c4c3)nc2n1CC(=O)Nc1ccc(C(F)(F)F)cc1Cl` [WO2025049746, Example 304], for which the IC50 turned out to be 29 nM in assay [1] and 32 nM in assay [2].

Turning to `CCc1c(N2CCN(C(=O)c3ccccc3NS(=O)(=O)C3CC3)CC2)c(=O)n2nc(N3C[C@H]4COC[C@H]4C3)nc2n1CC(=O)Nc1ccc(C(F)(F)F)c2c1CC2` [WO2025049746, Example 112], the IC50 in assay [1] was 45.7 nM; in assay [2], 58.3 nM.

On to `CCc1c(N2CCN(C(=O)c3ncnc(C)c3O)CC2)c(=O)n2nc(-c3ccn4nc(C)cc4c3)nc2n1CC(=O)Nc1ccc(C(F)(F)F)cc1Cl` [WO2025049746, Example 247], for which the IC50 in assay [1] worked out at 27 nM; in assay [2], 26 nM.

`CCc1c(N2CCN(C(=O)c3ncnc(C)c3O)CC2)c(=O)n2nc(-c3ccc4oc(=O)n(C)c4c3)nc2n1CC(=O)Nc1ccc(C(F)(F)F)cc1Cl` [WO2025049746, Example 225]: the IC50 in assay [1] came to 32 nM; in assay [2], 27 nM.

For the molecule `CCc1c(N2CCN(C(=O)c3cc(C(C)C)c(O)cc3O)CC2)c(=O)n2nc(-c3ccc4c(c3)COC4)nc2n1CC(=O)Nc1ccc(C(F)(F)F)cc1Cl` [WO2025049746, Example 408], the IC50 is 1200 nM in assay [1] and 1260 nM in assay [2].

Turning to `CCc1c(N2CCN(C(=O)c3ncnc(C)c3O)CC2)c(=O)n2nc(-c3cccc4c3OCO4)nc2n1CC(=O)Nc1ccc(SC(F)(F)F)cc1` [WO2025049746, Example 394], the IC50 came to 593 nM in assay [1] and 760 nM in assay [2].

With `CCc1c(N2CCN(C(=O)c3ncnc(C)c3O)CC2)c(=O)n2nc(-c3cnn4c3COCC4)nc2n1CC(=O)Nc1ccc(C(F)(F)F)cc1Cl` [WO2025049746, Example 20], the figures for the IC50 in assay [1] and in assay [2] were 53.6 nM and 88.6 nM, respectively.

Turning to `CCc1c(N2CCN(C(=O)c3ncnc(C)c3O)CC2)c(=O)n2nc(-c3cccc4c3COCC4)nc2n1CC(=O)Nc1c(Cl)cc(C(F)(F)F)c2c1CC2` [WO2025049746, Example 390], the IC50 was found to be 52 nM in assay [1] and 84 nM in assay [2].

On to `CCc1c(N2CCN(C(=O)c3ncnc(C)c3O)CC2)c(=O)n2nc(-c3cccc4oc(C)nc34)nc2n1CC(=O)Nc1ccc(C(F)(F)F)cc1Cl` [WO2025049746, Example 155], for which the IC50 is 35 nM in assay [1] and 89 nM in assay [2].

As for `CCc1c(N2CCN(C(=O)c3ncnc(C)c3O)CC2)c(=O)n2nc(N3CCC3)nc2n1CC(=O)Nc1ccc(C(F)(F)F)cc1Cl` [WO2025049746, Example 28], the values for the IC50 in assay [1] and in assay [2] were 60.3 nM and 90.9 nM, respectively.

Turning to `CCc1c(N2CCN(C(=O)c3ncnc(C)c3O)CC2)c(=O)n2nc(-c3ccc4nscc4c3)nc2n1CC(=O)Nc1ccc(C(F)(F)F)cc1Cl` [WO2025049746, Example 266], the IC50 in assay [1] and in assay [2] was 22 nM each time.

Take `CCc1c(N2CCN(C(=O)C(C)O)CC2)c(=O)n2nc(C3=CCOCC3)nc2n1CC(=O)Nc1ccc(C(F)(F)F)cc1Cl` (stereo unspecified) [WO2025049746, Example 54]: the values for the IC50 in assay [1] and in assay [2] were 46.1 nM and 182 nM, respectively.

In the case of `CCc1c(N2CCN(C(=O)c3ncnc(C)c3O)CC2)c(=O)n2nc(N3CCC3)nc2n1CC(=O)Nc1c(Cl)cc(C(F)(F)F)c2c1CC2` [WO2025049746, Example 391], the results for the IC50 in assay [1] and in assay [2] were 82 nM and 93 nM, respectively.

`CCc1c(N2CCN(S(=O)(=O)C3CC3)CC2)c(=O)n2nc(C3=CCOCC3)nc2n1CC(=O)Nc1ccc(C(F)(F)F)cc1Cl` [WO2025049746, Example 60]: the IC50 amounted to 44.5 nM in assay [1] and 38.5 nM in assay [2].

These data come from BindingDB's records for patent WO2025049746 (Eikon Therapeutics, 2025).
